One may read the EC50 as the midpoint of the concentration-response curve.

Among the data in BindingDB's records for doi:10.7270/Q2D798VP (Broad Institute, 2009) are EC50 values, retold here.

In this experiment the target is T1, Zinc finger protein mex-5 (Caenorhabditis elegans, UniProt Q9XUB2).
T1 sequence (Q9XUB2 whole entry): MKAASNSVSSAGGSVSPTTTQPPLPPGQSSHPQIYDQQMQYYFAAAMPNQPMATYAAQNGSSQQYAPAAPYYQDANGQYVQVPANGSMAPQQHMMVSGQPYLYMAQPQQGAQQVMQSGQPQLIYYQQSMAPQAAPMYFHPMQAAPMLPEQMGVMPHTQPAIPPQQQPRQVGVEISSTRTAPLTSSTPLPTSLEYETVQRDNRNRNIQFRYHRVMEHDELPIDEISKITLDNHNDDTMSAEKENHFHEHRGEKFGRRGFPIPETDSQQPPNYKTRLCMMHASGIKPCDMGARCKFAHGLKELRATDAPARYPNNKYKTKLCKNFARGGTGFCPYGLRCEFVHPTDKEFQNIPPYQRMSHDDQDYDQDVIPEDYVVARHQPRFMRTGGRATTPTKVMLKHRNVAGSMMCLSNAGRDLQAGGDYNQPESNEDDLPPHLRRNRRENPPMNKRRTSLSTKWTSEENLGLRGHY
Briefly: potency of MEX-5 RNA-binding blockers – biochemical, C. elegans, fluorescence polarization, dose response (AID 1960). On the technique in general: Fluorescence polarisation rises when a labelled molecule tumbles more slowly, as on binding a larger partner.

The molecule `COC(=O)c1[nH]c2cc(OC)c(OC)cc2c1CN=Nc1ccccc1` [methyl (3Z)-5,6-dimethoxy-3-[(2-phenylhydrazinyl)methylidene]indole-2-carboxylate] returned an EC50 of 20.3 µM. In other words, the double-digit micromolar range.

Regarding `N#CC(C(=O)c1cc2ccccc2o1)c1nc2ccccc2s1` (configuration not stated) [(2Z)-3-(1-benzofuran-2-yl)-2-(3H-1,3-benzothiazol-2-ylidene)-3-oxidanylidene-propanenitrile], the concentration giving a half-maximal response (EC50) was greater than 300 µM.

On to `C=CCn1c(=O)c(=Cc2ccsc2)s/c1=C(\C#N)C(=O)NCCN1CCOCC1` [2-[3-allyl-4-keto-5-(3-thenylidene)thiazolidin-2-ylidene]-2-cyano-N-(2-morpholinoethyl)acetamide], for which the 50% effective concentration (EC50) came to 21.9 µM.

`Cc1ncc(C=O)c(CNNC(=O)c2cc(Br)ccc2O)c1O` [5-bromanyl-N'-[(Z)-[5-(hydroxymethyl)-2-methyl-3-oxidanylidene-pyridin-4-ylidene]methyl]-2-oxidanyl-benzohydrazide] showed a concentration for a half-maximal effect (EC50) of 5.72 µM.

Take `COc1cccc(C2C(C(=O)c3cc4cccc(OC)c4o3)C(=O)C(=O)N2c2cc(C)on2)c1OC` (configuration not stated) [2-(2,3-dimethoxyphenyl)-3-[(7-methoxy-1-benzofuran-2-yl)carbonyl]-1-(5-methyl-1,2-oxazol-3-yl)-4-oxidanyl-2H-pyrrol-5-one]: the EC50 was greater than 300 µM.

In turn, `O=C(CC(=O)c1ccccc1)C(=O)NNC(=O)c1ccccc1[N+](=O)[O-]` [2-Nitro-benzoic acid N'-(2-hydroxy-4-oxo-4-phenyl-but-2-enoyl)-hydrazide] showed an EC50 of 1.11 µM.

Molecule `O=C(N/N=C/C1C=C(Cl)C=C([N+](=O)[O-])C1=O)c1ccccc1NS(=O)(=O)c1cccs1` (configuration not stated) [SMR000364876] came in with an EC50 of 1.56 µM.

In the case of `C/N=C1/S/C(=C\c2ccc(N3CCCC3)c(F)c2)C(=O)N1C` [(5Z)-5-(3-fluoro-4-pyrrolidino-benzylidene)-3-methyl-2-methylimino-thiazolidin-4-one], a half-maximal effect (EC50) was put at 8.89 µM.

`CCOc1ccc(N2C(=O)NC(=O)C(=Cc3c[nH]c4ccccc34)C2=O)cc1` [(5E)-1-(4-ethoxyphenyl)-5-(1H-indol-3-ylmethylidene)-1,3-diazinane-2,4,6-trione] displayed a concentration giving a half-maximal response (EC50) of 47 µM.

Turning to `COc1cccc(C2C3=C(CCCC3=O)OC(=N)C2C#N)c1OC(=O)c1ccco1` (configuration not stated) [2-(2-amino-3-cyano-5-oxo-5,6,7,8-tetrahydro-4H-chromen-4-yl)-6-methoxyphenyl 2-furoate], the EC50 was greater than 300 µM.

`Cc1cc(C=C2C(=O)NC(=O)N(c3ccc(Cl)cc3)C2=O)c(C)n1C` [(5E)-1-(4-chlorophenyl)-5-[(1,2,5-trimethyl-3-pyrrolyl)methylidene]-1,3-diazinane-2,4,6-trione] had a concentration giving a half-maximal response (EC50) of 47.7 µM.

As for `Cc1c(NC=C2C(=O)N(C)C(=O)c3ccccc32)c(=O)n(-c2ccccc2)n1C` [(4E)-4-[[(1,5-dimethyl-3-oxo-2-phenyl-4-pyrazolyl)amino]methylidene]-2-methylisoquinoline-1,3-dione], the EC50 was greater than 300 µM.

As to `Cc1cc(N2C(=O)C(=O)C(C(=O)c3cc4ccccc4o3)C2c2ccc([N+](=O)[O-])cc2)no1` (configuration not stated) [3-(1-benzofuran-2-carbonyl)-4-hydroxy-1-(5-methyl-1,2-oxazol-3-yl)-2-(4-nitrophenyl)-2H-pyrrol-5-one], a half-maximal response (EC50) required 45.4 µM.

Consider `CCOc1cc(C=C2SC(Nc3ccc(CC)cc3)=NC2=O)ccc1OCC(=O)O` [2-[2-ethoxy-4-[(Z)-[2-(4-ethylanilino)-4-oxo-1,3-thiazol-5-ylidene]methyl]phenoxy]acetic acid], for which the EC50 came to 149 µM. Compared with the last molecule, the EC50 is about 3.3-fold higher.

The molecule `O=C1CC(=O)c2c(O)cc(O)c(O)c2C1=O` [4,5,7,8-tetrahydroxy-1,2-naphthoquinone] came in with an EC50 of 0.899 µM.

In turn, `COc1cc(C2C3=C(CCCC3=O)OC(=N)C2C#N)cc(OC)c1OC(=O)N1CCOCC1` (configuration not stated) [4-(2-amino-3-cyano-5-oxo-5,6,7,8-tetrahydro-4H-chromen-4-yl)-2,6-dimethoxyphenyl morpholine-4-carboxylate] gave a concentration giving a half-maximal response (EC50) greater than 300 µM.

Turning to `N#CC1C(=N)OC2=C(C(=O)CCC2)C1c1cc2c(cc1Cl)OCO2` (configuration not stated) [MLS001183950], the EC50 is greater than 300 µM.

In the case of `COc1cc(C2C3=C(CC(C)(C)CC3=O)OC(=N)C2C#N)cc2c1OCO2` (configuration not stated), the EC50 is greater than 300 µM.

For `O=C1N=C(O)C(C2=c3cc([N+](=O)[O-])ccc3=NC2=O)S1` (configuration not stated) [MLS001163276], the EC50 was found to be 21.5 µM. In other words, the double-digit micromolar range.

`N#CC1=C2CCOC[C@@H]2[C@@H](c2ccsc2)C(C#N)(C#N)C1=N` [(8R,8aR)-6-amino-8-(3-thienyl)-1,3,8,8a-tetrahydroisochromene-5,7,7-tricarbonitrile] came in with a concentration giving a half-maximal response (EC50) greater than 300 µM.

Molecule `C=CCOc1cccc(C2C(C(=O)c3ccc(C)o3)C(=O)C(=O)N2c2nccs2)c1` (configuration not stated) [3-(5-methylfuran-2-yl)carbonyl-4-oxidanyl-2-(3-prop-2-enoxyphenyl)-1-(1,3-thiazol-2-yl)-2H-pyrrol-5-one] had a 50% effective concentration (EC50) of 0.851 µM.

`COc1cc(C2C3=C(CCCC3=O)OC(=N)C2C#N)ccc1OC(=O)N1CCOCC1` (configuration not stated) [4-(2-amino-3-cyano-5-oxo-5,6,7,8-tetrahydro-4H-chromen-4-yl)-2-methoxyphenyl morpholine-4-carboxylate] showed an EC50 greater than 300 µM.

In the case of `CN1CCC2=C(C#N)C(=N)C(C#N)(C#N)C(c3cccc(Cl)c3Cl)C2C1` (configuration not stated) [6-azanyl-8-[2,3-bis(chloranyl)phenyl]-2-methyl-1,3,8,8a-tetrahydroisoquinoline-5,7,7-tricarbonitrile], the midpoint of the response, the EC50, lay at 13.5 µM.

Consider `COc1ccccc1N1C(=O)NC(=O)C(=Cc2c[nH]c3ccccc23)C1=O` [SMR000495900], for which the EC50 was greater than 300 µM.

For `CN(C)[C@@H]1C(=O)C(C(N)=O)C(=O)[C@@]2(O)C(=O)C3C(=O)c4c(O)cccc4[C@@](C)(O)[C@H]3[C@H](O)[C@@H]12` (stereo partly drawn) [(2E,4S,4aR,5S,5aR,6S,12aS)-2-[azanyl(oxidanyl)methylidene]-4-(dimethylamino)-6-methyl-5,6,10,11,12a-pentakis(oxidanyl)-4,4a,5,5a-tetrahydrotetracene-1,3,12-trione], the concentration giving a half-maximal response (EC50) was determined as 29.9 µM.

`O=C1C([N+](=O)[O-])=CC(Cl)=CC1/C=N/NC(=O)C(O)(c1ccccc1)c1ccccc1` (configuration not stated) [N''''-[(E)-(3-chloro-5-nitro-6-oxocyclohexa-2,4-dien-1-ylidene)methyl]-2-hydroxy-2,2-diphenylacetohydrazide] displayed an EC50 of 40.2 µM.

For the molecule `Cc1ccc(C2C3CN(C(C)C)CCC3=C(C#N)C(=N)C2(C#N)C#N)cc1` (configuration not stated) [SMR000034220], the concentration for a half-maximal effect (EC50) amounted to 8.29 µM.

The molecule `COc1ccc(C2C(C(C)=O)=C(C)N=c3sc(=Cc4cc(C)n(C)c4C)c(=O)n32)c(OC)c1` (configuration not stated) yielded a concentration for a half-maximal effect (EC50) of 21 µM. Against the preceding molecule, the EC50 is about 2.5-fold higher.

Turning to `N#CC1C(=N)C2=C(N3CCCCC3)CCCC2C1(C#N)C#N` (configuration not stated) [3-Amino-4-piperidin-1-yl-5,6,7,7a-tetrahydro-indene-1,1,2-tricarbonitrile], the EC50 was 77.1 µM.

In the case of `O=CC(C=Nc1ccccn1)c1nc2cc(Cl)ccc2o1` (configuration not stated) [(Z)-2-(5-chloranyl-1,3-benzoxazol-2-yl)-3-(pyridin-2-ylamino)prop-2-enal], the concentration giving a half-maximal response (EC50) came to 36.4 µM.

Consider `COc1ccc(OC)c(C2C(C(=O)c3ccco3)C(=O)C(=O)N2CCN2CCOCC2)c1` (configuration not stated) [2-(2,5-dimethoxyphenyl)-3-(furan-2-carbonyl)-4-hydroxy-1-(2-morpholin-4-ylethyl)-2H-pyrrol-5-one], for which the half-maximal effective concentration (EC50) is greater than 300 µM.

`CC1(C)CC(=O)C2=C(C1)OC(=N)C(C#N)C2c1ccc2c(c1)OCO2` (configuration not stated) [SMR000514966]: the EC50 was greater than 300 µM.
